The results in this text go back to US8653138B2, “Calcium salts of compounds as anti-inflammatory, immunomodulatory and anti-proliferatory agents” (4SC MG, priority 2010, dated 2014).

A value given as a limit tells only on which side of the number the result lay.

The target of the experiment is T1, recombinant human DHODH (Homo sapiens, UniProt Q02127).
T1 construct: provided by Prof; M. Löffler, Marburg, Germany (gift, not a commercial vendor)
T1 sequence (Q02127 whole entry): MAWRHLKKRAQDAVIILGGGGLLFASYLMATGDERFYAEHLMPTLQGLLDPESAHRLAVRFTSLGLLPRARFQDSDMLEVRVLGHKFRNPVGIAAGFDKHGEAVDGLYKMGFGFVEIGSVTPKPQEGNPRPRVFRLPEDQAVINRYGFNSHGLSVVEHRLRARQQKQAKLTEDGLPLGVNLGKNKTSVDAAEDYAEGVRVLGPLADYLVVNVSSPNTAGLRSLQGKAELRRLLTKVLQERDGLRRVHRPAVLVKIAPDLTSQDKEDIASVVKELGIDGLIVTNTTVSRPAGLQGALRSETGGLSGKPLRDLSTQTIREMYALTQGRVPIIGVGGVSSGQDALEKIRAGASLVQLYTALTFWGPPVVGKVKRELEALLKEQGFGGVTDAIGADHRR
As to the kind of experiment: Inhibition assay of DHODH activity, human enzyme. The format is biochemical. The note with it: class symbol (head prints μM, key in nM). As to the method: The standard assay mixture contained 50 μM decyclo ubichinone, 100 μM dihydroorotate, 60 μM 2,6-dichloroindophenol, as well as 20 mU DHODH. The volume activity of the recombinant enzyme used was 30 U/ml. Measurements were conducted in 50 mM TrisHCl (150 mM KCl, 0.1% Triton X-100, pH 8.0) at 30° C. in a final volume of 1 ml. The components were mixed, and the reaction was started by adding dihydroorotate. The course of reaction was followed by spectrophotometrically measuring the decrease in absorption at 600 nm for 2 min.
Inhibitory studies were conducted in a standard assay with additional variable amounts of inhibitor.
These investigations were carried out with recombinant human as well as with recombinant murine DHODH provided by Prof. M. Löffler, Marburg, Germany [M. Löffler, Chem. Biol. Interact.
A word on the IC50: it is the concentration at which inhibition is half-maximal. Take `O=C(O)C1=C(C(=O)Nc2ccc(-c3ccccc3F)cc2)CCC1` [Compound 13, 2-((2′-fluoro-[1,1′-biphenyl]-4-yl)carbamoyl)cyclopent-1-enecarboxylic acid]: the IC50 was less than 0.8 µM. With `O=C(O)C1=C(C(=O)Nc2ccc(-c3ccccc3Cl)cc2)CCC1` [Compound 14, 2-((2′-chloro-[1,1′-biphenyl]-4-yl)carbamoyl)cyclopent-1-enecarboxylic acid] the figure was less than 0.8 µM. Regarding `COc1ccccc1-c1ccc(NC(=O)C2=C(C(=O)O)CCC2)cc1` [Compound 15, 2-((2′-methoxy-[1,1′-biphenyl]-4-yl)carbamoyl)cyclopent-1-enecarboxylic acid], the IC50 is less than 0.8 µM. With `O=C(O)C1=C(C(=O)Nc2ccc(OCc3c(F)cccc3F)cc2)CCC1` [Compound 16, 2-((4-((2,6-difluorobenzyl)oxy)phenyl)carbamoyl)cyclopent-1-enecarboxylic acid] the figure was less than 0.8 µM. With `CCOc1ccccc1-c1ccc(NC(=O)C2=C(C(=O)O)CCC2)c(F)c1` [Compound 17, 2-((2′-ethoxy-3-fluoro-[1,1′-biphenyl]-4-yl)carbamoyl)cyclopent-1-enecarboxylic acid] the figure was less than 0.8 µM. As to `N#Cc1cccc(-c2ccc(NC(=O)C3=C(C(=O)O)CCC3)cc2Cl)c1` [Compound 18, 2-((2-chloro-3′-cyano-[1,1′-biphenyl]-4-yl)carbamoyl)cyclopent-1-enecarboxylic acid], the IC50 is less than 0.8 µM. As for `COc1ccc(-c2ccc(NC(=O)C3=C(C(=O)O)CCC3)cc2Cl)cc1` [Compound 19, 2-((2-chloro-4′-methoxy-[1,1′-biphenyl]-4-yl)carbamoyl)cyclopent-1-enecarboxylic acid], the IC50 was less than 0.8 µM. As for `COc1ccc(-c2ccc(NC(=O)C3=C(C(=O)O)CCC3)cc2Cl)cn1` [Compound 22, 2-((3-chloro-4-(6-methoxypyridin-3-yl)phenyl)carbamoyl)cyclopent-1-enecarboxylic acid], the IC50 was less than 0.8 µM. To `COc1ccc(-c2ccc(NC(=O)C3=C(C(=O)O)CCC3)cc2C)cc1` [Compound 23, 2-((4′-methoxy-2-methyl-[1,1′-biphenyl]-4-yl)carbamoyl)cyclopent-1-enecarboxylic acid] belongs less than 0.8 µM; to `O=C(O)C1=C(C(=O)Nc2cc(Br)c(OCc3cc(F)ccc3F)c(Br)c2)CCC1` [Compound 24], less than 0.8 µM.

Take `O=C(O)C1=C(C(=O)Nc2ccc(-c3cccc(F)c3)cc2F)CCC1` [Compound 27, 2-((3,3′-difluoro-[1,1′-biphenyl]-4-yl)carbamoyl)cyclopent-1-enecarboxylic acid]: the IC50 was less than 0.8 µM.

As to `O=C(O)C1=C(C(=O)Nc2cc(Br)c(OCc3ccccc3)c(Br)c2)CSC1` [Compound 29, 4-((4-(benzyloxy)-3,5-dibromophenyl)carbamoyl)-2,5-dihydrothiophene-3-carboxylic acid], the concentration for half-maximal inhibition (IC50) was less than 0.8 µM. As for `Cc1cc(-c2cc(F)c(NC(=O)C3=C(C(=O)O)CCC3)c(F)c2)ccc1F` [Compound 30, 2-((3,4′,5-trifluoro-3′-methyl-[1,1′-biphenyl]-4-yl)carbamoyl)cyclopent-1-enecarboxylic acid], the IC50 is less than 0.8 µM. Turning to `COc1ccccc1-c1ccc(NC(=O)C2=C(C(=O)O)CCC2)c([N+](=O)[O-])c1` [Compound 32, 2-((2′-methoxy-3-nitro-[1,1′-biphenyl]-4-yl)carbamoyl)cyclopent-1-enecarboxylic acid], the IC50 is less than 0.8 µM. For the compound `COc1cc(-c2ccccc2)ccc1NC(=O)C1=C(C(=O)O)CCC1` [Compound 33, 2-((3-methoxy-[1,1′-biphenyl]-4-yl)carbamoyl)cyclopent-1-enecarboxylic acid], the IC50 is less than 0.8 µM. To `COc1cc(-c2ccccc2Cl)ccc1NC(=O)C1=C(C(=O)O)CCC1` [Compound 34, 2-((2′-chloro-3-methoxy-[1,1′-biphenyl]-4-yl)carbamoyl)cyclopent-1-enecarboxylic acid] belongs less than 0.8 µM; to `COc1cc(-c2cccc(OC(F)(F)F)c2)ccc1NC(=O)C1=C(C(=O)O)CCC1` [Compound 35, 2-((3-methoxy-3′-(trifluoromethoxy)-[1,1′-biphenyl]-4-yl)carbamoyl)cyclopent-1-enecarboxylic acid], less than 0.8 µM; to `COc1cc(-c2ccccc2F)ccc1NC(=O)C1=C(C(=O)O)CCC1` [Compound 36, 2-((2′-fluoro-3-methoxy-[1,1′-biphenyl]-4-yl)carbamoyl)cyclopent-1-enecarboxylic acid], less than 0.8 µM. `COc1ccc(-c2ccc(NC(=O)C3=C(C(=O)O)CCC3)c(OC)c2)c(OC)c1` [Compound 37, 2-((2′,3,4′-trimethoxy-[1,1′-biphenyl]-4-yl)carbamoyl)cyclopent-1-enecarboxylic acid]: the IC50 is less than 0.8 µM. As to `CCOc1cccc(-c2ccc(NC(=O)C3=C(C(=O)O)CCC3)c(OC)c2)c1` [Compound 38, 2-((3′-ethoxy-3-methoxy-[1,1′-biphenyl]-4-yl)carbamoyl)cyclopent-1-enecarboxylic acid], the IC50 is less than 0.8 µM. `COc1cccc(-c2ccc(NC(=O)C3=C(C(=O)O)CCC3)c(OC)c2)c1` [Compound 39, 2-((3,3′-dimethoxy-[1,1′-biphenyl]-4-yl)carbamoyl)cyclopent-1-enecarboxylic acid]: the IC50 is less than 0.8 µM. On to `O=C(O)C1=C(C(=O)Nc2ccc(-c3ccccc3Cl)cc2)CSC1` [Compound 41, 4-((2′-chloro-[1,1′-biphenyl]-4-yl)carbamoyl)-2,5-dihydrothiophene-3-carboxylic acid], for which the IC50 was less than 0.8 µM. As to `Cc1cccc(Sc2ccc(NC(=O)C3=C(C(=O)O)CCC3)cc2)c1` [Compound 42, 2-((4-(m-tolylthio)phenyl)carbamoyl)cyclopent-1-enecarboxylic acid], the IC50 is less than 0.8 µM.

Take `O=C(O)C1=C(C(=O)Nc2ccc(-c3cccc(OC(F)(F)F)c3)cc2)CCC1` [Compound 43, 2-((3′-(trifluoromethoxy)-[1,1′-biphenyl]-4-yl)carbamoyl)cyclopent-1-enecarboxylic acid]: the IC50 was less than 0.8 µM. For the compound `O=C(O)C1=C(C(=O)Nc2ccc(-c3cc4ccccc4s3)cc2)CCC1` [Compound 44, 2-((4-(benzo[b]thiophen-2-yl)phenyl)carbamoyl)cyclopent-1-enecarboxylic acid], the IC50 is less than 0.8 µM.

Consider `O=C(O)C1=C(C(=O)Nc2ccc(-c3cc4ccccc4s3)cc2F)CCC1` [Compound 45, 2-((4-(benzo[b]thiophen-2-yl)-2-fluorophenyl)carbamoyl)cyclopent-1-enecarboxylic acid], for which the IC50 was less than 0.8 µM. Take `CCOc1cccc(-c2ccc(NC(=O)C3=C(C(=O)O)CCC3)c(F)c2)c1` [Compound 46, 2-((3′-ethoxy-3-fluoro-[1,1′-biphenyl]-4-yl)carbamoyl)cyclopent-1-enecarboxylic acid]: the IC50 is less than 0.8 µM. On to `O=C(O)C1=C(C(=O)Nc2ccc(Oc3ccccc3)cc2)CCC1` [Compound 50, 2-((4-phenoxyphenyl)carbamoyl)cyclopent-1-enecarboxylic acid], for which the IC50 is less than 0.8 µM. In the case of `COc1ccccc1-c1ccc(NC(=O)C2=C(C(=O)O)CCC2)c(Cl)c1` [Compound 53, 2-((3-chloro-2′-methoxy-[1,1′-biphenyl]-4-yl)carbamoyl)cyclopent-1-enecarboxylic acid], the IC50 was less than 0.8 µM.
